pIC50: −log10 of the molar value. Activity calls are given as the source filed them. The calls are words filed in the database; no cut-off is given here.
Experiments:
[1] = target: T1, Inosine-5'-monophosphate dehydrogenase (Pseudomonas aeruginosa (strain ATCC 15692 / DSM 22644 / CIP 104116 / JCM14847 / LMG 12228 / 1C / PRS 101 / PAO1), UniProt Q9HXM5); experiment: Inhibition of Pseudomonas aeruginosa IMPDH using IMP as substrate in the presence of NAD+ incubated for 70 secs; settings: for pIC50: read-out: IC50
T1 sequence (Q9HXM5 whole entry): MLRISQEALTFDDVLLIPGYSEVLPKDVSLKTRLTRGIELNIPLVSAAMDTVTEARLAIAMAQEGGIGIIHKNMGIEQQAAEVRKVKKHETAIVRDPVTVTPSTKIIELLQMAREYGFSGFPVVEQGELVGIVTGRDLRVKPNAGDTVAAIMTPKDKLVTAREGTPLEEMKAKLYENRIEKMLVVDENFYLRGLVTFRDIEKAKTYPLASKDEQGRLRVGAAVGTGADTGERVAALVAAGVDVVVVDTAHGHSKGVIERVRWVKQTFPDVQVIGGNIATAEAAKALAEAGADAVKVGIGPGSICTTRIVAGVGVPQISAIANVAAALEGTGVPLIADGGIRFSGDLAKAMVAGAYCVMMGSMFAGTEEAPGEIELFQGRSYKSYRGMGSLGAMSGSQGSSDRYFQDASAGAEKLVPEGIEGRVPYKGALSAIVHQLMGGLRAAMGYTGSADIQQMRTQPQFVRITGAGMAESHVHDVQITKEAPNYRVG

[2] = target: T2, Inosine-5'-monophosphate dehydrogenase (Pseudomonas aeruginosa (strain ATCC 15692 / DSM 22644 / CIP 104116 / JCM14847 / LMG 12228 / 1C / PRS 101 / PAO1)) (UniProt Q9HXM5); experiment: Competitive inhibition of Pseudomonas aeruginosa IMPDH using IMP as substrate and NAD+ in presence of varying ATP incubated for 70 secs
T2 sequence (whole entry): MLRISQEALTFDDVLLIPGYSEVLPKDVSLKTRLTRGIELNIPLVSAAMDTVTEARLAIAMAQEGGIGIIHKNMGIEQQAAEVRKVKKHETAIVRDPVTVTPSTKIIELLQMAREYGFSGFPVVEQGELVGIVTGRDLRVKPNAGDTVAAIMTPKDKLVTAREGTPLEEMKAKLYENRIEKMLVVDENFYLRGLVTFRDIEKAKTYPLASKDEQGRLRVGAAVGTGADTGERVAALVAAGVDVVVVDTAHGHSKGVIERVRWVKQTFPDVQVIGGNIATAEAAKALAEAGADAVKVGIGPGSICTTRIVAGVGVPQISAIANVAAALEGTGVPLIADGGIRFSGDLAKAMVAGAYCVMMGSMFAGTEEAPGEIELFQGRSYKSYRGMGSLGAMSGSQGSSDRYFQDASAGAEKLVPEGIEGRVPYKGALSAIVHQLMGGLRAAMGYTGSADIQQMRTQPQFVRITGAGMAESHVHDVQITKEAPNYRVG

[3] = target: T2, Inosine-5'-monophosphate dehydrogenase (Pseudomonas aeruginosa (strain ATCC 15692 / DSM 22644 / CIP 104116 / JCM14847 / LMG 12228 / 1C / PRS 101 / PAO1)); experiment: Inhibition of Pseudomonas aeruginosa IMPDH at 57.4 uM using IMP as substrate in the presence of NAD+ incubated for 70 secs relative to control
[4] = target: T2, Inosine-5'-monophosphate dehydrogenase (Pseudomonas aeruginosa (strain ATCC 15692 / DSM 22644 / CIP 104116 / JCM14847 / LMG 12228 / 1C / PRS 101 / PAO1)); experiment: Inhibition of Pseudomonas aeruginosa IMPDH at 54.6 uM using IMP as substrate in the presence of NAD+ incubated for 70 secs relative to control
[5] = target: T2, Inosine-5'-monophosphate dehydrogenase (Pseudomonas aeruginosa (strain ATCC 15692 / DSM 22644 / CIP 104116 / JCM14847 / LMG 12228 / 1C / PRS 101 / PAO1)); experiment: Inhibition of Pseudomonas aeruginosa IMPDH at 18.2 uM using IMP as substrate in the presence of NAD+ incubated for 70 secs relative to control
[6] = target: T2, Inosine-5'-monophosphate dehydrogenase (Pseudomonas aeruginosa (strain ATCC 15692 / DSM 22644 / CIP 104116 / JCM14847 / LMG 12228 / 1C / PRS 101 / PAO1)); experiment: Inhibition of Pseudomonas aeruginosa IMPDH at 43.1 uM using IMP as substrate in the presence of NAD+ incubated for 70 secs relative to control
[7] = target: T2, Inosine-5'-monophosphate dehydrogenase (Pseudomonas aeruginosa (strain ATCC 15692 / DSM 22644 / CIP 104116 / JCM14847 / LMG 12228 / 1C / PRS 101 / PAO1)); experiment: Inhibition of Pseudomonas aeruginosa IMPDH at 42.9 uM using IMP as substrate in the presence of NAD+ incubated for 70 secs relative to control
[8] = target: T2, Inosine-5'-monophosphate dehydrogenase (Pseudomonas aeruginosa (strain ATCC 15692 / DSM 22644 / CIP 104116 / JCM14847 / LMG 12228 / 1C / PRS 101 / PAO1)); experiment: Inhibition of Pseudomonas aeruginosa IMPDH at 39.6 uM using IMP as substrate in the presence of NAD+ incubated for 70 secs relative to control
[9] = target: T2, Inosine-5'-monophosphate dehydrogenase (Pseudomonas aeruginosa (strain ATCC 15692 / DSM 22644 / CIP 104116 / JCM14847 / LMG 12228 / 1C / PRS 101 / PAO1)); experiment: Inhibition of Pseudomonas aeruginosa IMPDH at 44.7 uM using IMP as substrate in the presence of NAD+ incubated for 70 secs relative to control
[10] = target: T2, Inosine-5'-monophosphate dehydrogenase (Pseudomonas aeruginosa (strain ATCC 15692 / DSM 22644 / CIP 104116 / JCM14847 / LMG 12228 / 1C / PRS 101 / PAO1)); experiment: Inhibition of Pseudomonas aeruginosa IMPDH at 41.5 uM using IMP as substrate in the presence of NAD+ incubated for 70 secs relative to control
[11] = target: T2, Inosine-5'-monophosphate dehydrogenase (Pseudomonas aeruginosa (strain ATCC 15692 / DSM 22644 / CIP 104116 / JCM14847 / LMG 12228 / 1C / PRS 101 / PAO1)); experiment: Inhibition of Pseudomonas aeruginosa IMPDH assessed as Km for IMP at 10 uM using IMP as substrate in presence of 2 mM NAD+ and 0.2 mM MgATP (reference value: 483 +/- 65 microM)
[12] = target: T2, Inosine-5'-monophosphate dehydrogenase (Pseudomonas aeruginosa (strain ATCC 15692 / DSM 22644 / CIP 104116 / JCM14847 / LMG 12228 / 1C / PRS 101 / PAO1)); experiment: Inhibition of Pseudomonas aeruginosa IMPDH at 55.6 uM using IMP as substrate in the presence of NAD+ incubated for 70 secs relative to control
[13] = target: T2, Inosine-5'-monophosphate dehydrogenase (Pseudomonas aeruginosa (strain ATCC 15692 / DSM 22644 / CIP 104116 / JCM14847 / LMG 12228 / 1C / PRS 101 / PAO1)); experiment: Inhibition of Pseudomonas aeruginosa IMPDH at 40 uM using IMP as substrate in the presence of NAD+ incubated for 70 secs relative to control
[14] = target: T2, Inosine-5'-monophosphate dehydrogenase (Pseudomonas aeruginosa (strain ATCC 15692 / DSM 22644 / CIP 104116 / JCM14847 / LMG 12228 / 1C / PRS 101 / PAO1)); experiment: Inhibition of Pseudomonas aeruginosa IMPDH at 38.5 uM using IMP as substrate in the presence of NAD+ incubated for 70 secs relative to control
[15] = target: T2, Inosine-5'-monophosphate dehydrogenase (Pseudomonas aeruginosa (strain ATCC 15692 / DSM 22644 / CIP 104116 / JCM14847 / LMG 12228 / 1C / PRS 101 / PAO1)); experiment: Inhibition of Pseudomonas aeruginosa IMPDH at 40.7 uM using IMP as substrate in the presence of NAD+ incubated for 70 secs relative to control

| Structure (SMILES) | pIC50 [1] | inhibition [2] | further results |
| --- | --- | --- | --- |
| N#CC1=C(N)Oc2[nH]c(=O)[nH]c(=O)c2C1c1ccc(Cl)cc1 (stereo unspecified) | 5.40 | Active | inhibition [3]: 89.3% |
| N#CC1=C(N)Oc2[nH]c(=O)[nH]c(=O)c2C1c1ccc([N+](=O)[O-])s1 (stereo unspecified) | 5.40 | Active | inhibition [4]: 85.7% |
| CN(Cc1ccccc1)Cc1nc2c(c(=O)n(C)c(=O)n2C)n1Cc1ccccc1F | – | – | IC50 [1]: Not Active; inhibition [6]: 93.3% |
| CCc1oc2ccccc2c1C(=O)c1cc(Br)c(O)c(Br)c1 [BENZBROMARONE] | 4.26 | – | inhibition [7]: 73.3% |
| N#CC1=C(N)Oc2[nH]c(=O)[nH]c(=O)c2C1c1ccc([N+](=O)[O-])cc1 (stereo unspecified) | 5.15 | Active | K0.5 [11]: 691 µM; inhibition [12]: 87.8% |
| COc1ccc(CCNc2nc3cc(Cl)c(Cl)cc3nc2-n2nc(C)cc2C)cc1OC | – | – | inhibition [13]: 20%; inhibition [14]: 77.8% |

Second part, led by results:

| pIC50 [1] | inhibition [2] | Structure (SMILES) | further results |
| --- | --- | --- | --- |
| 5.80 | Active | COc1cc(-c2ccc(/N=N/c3ccc4c(S(=O)(=O)O)cc(S(=O)(=O)O)c(N)c4c3O)c(OC)c2)ccc1/N=N/c1ccc2c(S(=O)(=O)O)cc(S(=O)(=O)O)c(N)c2c1O [CHICAGO SKY BLUE SODIUM] | inhibition [5]: 92.2% |
| 4.93 | Active | COc1ccc(-c2cc(C(=O)O)nc3[nH]nc(-c4ccc(C)cc4)c23)cc1Br | inhibition [8]: 83.1% |
| 4.72 | Active | CC(=O)Nc1ccc(-c2cc(C(=O)O)nc3[nH]nc(-c4ccc(Cl)cc4)c23)cc1 | inhibition [9]: 73.2% |
| 4.93 | Active | COc1ccc(Br)cc1-c1cc(C(=O)O)nc2[nH]nc(-c3ccc(C)cc3)c12 | inhibition [10]: 79.9% |
| 5.13 | Active | O=C(O)c1cc(-c2cc(Br)ccc2F)c2c(-c3ccc(Cl)cc3)n[nH]c2n1 | inhibition [15]: 71.6% |
